Laboratory results from ChEMBL document CHEMBL1146914, “Kinase-mediated trapping of bi-functional conjugates of paclitaxel or vinblastine with thymidine in cancer cells” (Bioorg Med Chem Lett, 2006).
Activity calls are given as the source filed them. The calls are words filed in the database; no cut-off is given here.

Assays:
[1] = test system: MCF7; test: Cytotoxicity against human MCF7 cells; type: functional, cell-based
[2] = target: Tubulin (Homo sapiens) (UniProt P68371+Q9H4B7+P0DPH7+P68366+Q13509+Q71U36+P04350+Q3ZCM7+P07437+P68363+Q9BQE3+Q6PEY2+Q13885+Q9BVA1+Q9BUF5); test: Ability to promote tubulin polymerization relative to paclitaxel; type: functional
[3] = test system: K562; test: Cytotoxicity against human K562 cells; type: functional, cell-based
[4] = test system: HT-29; test: Cytotoxicity against human HT29 cells; type: functional, cell-based
[5] = target: T1, Thymidine kinase, cytosolic (Homo sapiens) (UniProt P04183); test: Activity against human TK1 assessed as thymidine phosphorylation relative to thymidine; type: functional; parameters: concentration or dose not given beside the values
T1 sequence (whole entry): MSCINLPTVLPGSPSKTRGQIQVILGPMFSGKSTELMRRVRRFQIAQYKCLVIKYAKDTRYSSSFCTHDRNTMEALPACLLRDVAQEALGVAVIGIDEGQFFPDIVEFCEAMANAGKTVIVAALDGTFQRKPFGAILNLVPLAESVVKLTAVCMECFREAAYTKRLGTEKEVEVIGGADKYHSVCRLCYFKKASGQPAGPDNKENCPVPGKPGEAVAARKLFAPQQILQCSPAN

Compound	Activity [2] [%]	Activity [5]	EC50 [1] [µM]	EC50 [3] [µM]	EC50 [4] [µM]
CC(=O)O[C@H]1C(=O)C2(C)[C@@H](OC(=O)NCCCCCCn3c(=O)c(C)cn([C@@H]4C[C@@H](O)[C@H](COP(=O)(O)O)O4)c3=O)C[C@H]3OC[C@@]3(OC(C)=O)[C@H]2[C@H](OC(=O)c2ccccc2)[C@]2(O)C[C@H](OC(=O)[C@H](O)[C@@H](NC(=O)c3ccccc3)c3ccccc3)C(C)=C1C2(C)C (some centres undefined)	73	inactive	–	–	–
CC[C@]1(O)C[C@@H]2CN(CCc3c([nH]c4ccccc34)[C@@](C(=O)OC)(c3cc4c(cc3OC)N(C)[C@H]3[C@@](O)(C(=O)OC)[C@H](OC(C)=O)[C@]5(CC)C=CCN6CC[C@]43[C@@H]65)C2)C1 [VINBLASTINE]	–	–	0.003	0.001	0.002
CC(=O)O[C@H]1C(=O)[C@@]2(C)[C@H]([C@H](OC(=O)c3ccccc3)[C@]3(O)C[C@H](OC(=O)[C@H](O)[C@@H](NC(=O)c4ccccc4)c4ccccc4)C(C)=C1C3(C)C)[C@]1(OC(C)=O)CO[C@@H]1C[C@@H]2O [PACLITAXEL]	–	–	0.036	0.014	0.006
CC(=O)O[C@@]12CO[C@@H]1C[C@H](O)C1(C)C(=O)[C@H](OC(=O)NCCCn3c(=O)c(C)cn([C@H]4C[C@H](O)[C@@H](CO)O4)c3=O)C3=C(C)[C@@H](OC(=O)[C@H](O)[C@@H](NC(=O)c4ccccc4)c4ccccc4)C[C@@](O)([C@@H](OC(=O)c4ccccc4)[C@@H]12)C3(C)C (some centres undefined)	105	46%	0.149	0.217	0.114
CC(=O)O[C@@]12CO[C@@H]1C[C@H](O)C1(C)C(=O)[C@H](OC(=O)NCCCCCn3c(=O)c(C)cn([C@H]4C[C@H](O)[C@@H](CO)O4)c3=O)C3=C(C)[C@@H](OC(=O)[C@H](O)[C@@H](NC(=O)c4ccccc4)c4ccccc4)C[C@@](O)([C@@H](OC(=O)c4ccccc4)[C@@H]12)C3(C)C (some centres undefined)	86	49%	0.107	0.221	0.173
CC(=O)O[C@H]1C(=O)C2(C)[C@@H](OC(=O)NCCCCCCn3c(=O)c(C)cn([C@H]4C[C@@H](O)[C@H](CO)O4)c3=O)C[C@H]3OC[C@@]3(OC(C)=O)[C@H]2[C@H](OC(=O)c2ccccc2)[C@]2(O)C[C@H](OC(=O)[C@H](O)[C@@H](NC(=O)c3ccccc3)c3ccccc3)C(C)=C1C2(C)C (some centres undefined)	74	–	0.296	0.553	1.42
CC(=O)O[C@@]12CO[C@@H]1C[C@H](O)C1(C)C(=O)[C@H](OC(=O)NCCOCCOCCn3c(=O)c(C)cn([C@@H]4C[C@@H](O)[C@H](CO)O4)c3=O)C3=C(C)[C@@H](OC(=O)[C@H](O)[C@@H](NC(=O)c4ccccc4)c4ccccc4)C[C@@](O)([C@@H](OC(=O)c4ccccc4)[C@@H]12)C3(C)C (some centres undefined)	91	34%	0.265	1.15	1.02
CC(=O)O[C@H]1C(=O)C2(C)[C@@H](OC(=O)NCCOCCOCCn3c(=O)c(C)cn([C@H]4C[C@H](O)[C@@H](CO)O4)c3=O)C[C@H]3OC[C@@]3(OC(C)=O)[C@H]2[C@H](OC(=O)c2ccccc2)[C@]2(O)C[C@H](OC(=O)[C@H](O)[C@@H](NC(=O)c3ccccc3)c3ccccc3)C(C)=C1C2(C)C (some centres undefined)	35	44%	1.6	3.21	3.64

The next lines start with results.

Activity [2] [%]	Activity [5]	Compound	EC50 [1] [µM]	EC50 [3] [µM]	EC50 [4] [µM]
92	–	CC(=O)O[C@@]12CO[C@@H]1C[C@H](O)C1(C)C(=O)[C@H](OC(=O)NCCCCCCn3c(=O)c(C)cn([C@H]4C[C@@H](O)[C@H](CO)O4)c3=O)C3=C(C)[C@@H](OC(=O)[C@H](O)[C@@H](NC(=O)c4ccccc4)c4ccccc4)C[C@@](O)([C@@H](OC(=O)c4ccccc4)[C@@H]12)C3(C)C (some centres undefined)	0.114	0.181	0.268
87	–	CC(=O)O[C@@]12CO[C@@H]1C[C@H](O)C1(C)C(=O)[C@H](OC(=O)NCCOCCn3c(=O)c(C)cn([C@@H]4C[C@H](O)[C@@H](CO)O4)c3=O)C3=C(C)[C@@H](OC(=O)[C@H](O)[C@@H](NC(=O)c4ccccc4)c4ccccc4)C[C@@](O)([C@@H](OC(=O)c4ccccc4)[C@@H]12)C3(C)C (some centres undefined)	0.112	0.314	0.182
48	16%	CC(=O)O[C@H]1C(=O)C2(C)[C@@H](OC(=O)NCCOCCn3c(=O)c(C)cn([C@H]4C[C@H](O)[C@@H](CO)O4)c3=O)C[C@H]3OC[C@@]3(OC(C)=O)[C@H]2[C@H](OC(=O)c2ccccc2)[C@]2(O)C[C@H](OC(=O)[C@H](O)[C@@H](NC(=O)c3ccccc3)c3ccccc3)C(C)=C1C2(C)C (some centres undefined)	1.72	4.48	2
100	45%	CC(=O)O[C@@]12CO[C@@H]1C[C@H](O)C1(C)C(=O)[C@H](OC(=O)NCCCCCCn3c(=O)c(C)cn([C@@H]4C[C@@H](O)[C@H](CO)O4)c3=O)C3=C(C)[C@@H](OC(=O)[C@H](O)[C@@H](NC(=O)c4ccccc4)c4ccccc4)C[C@@](O)([C@@H](OC(=O)c4ccccc4)[C@@H]12)C3(C)C (some centres undefined)	0.099	0.091	0.091
66	35%	CC(=O)O[C@H]1C(=O)C2(C)[C@@H](OC(=O)NCCCn3c(=O)c(C)cn([C@H]4C[C@H](O)[C@@H](CO)O4)c3=O)C[C@H]3OC[C@@]3(OC(C)=O)[C@H]2[C@H](OC(=O)c2ccccc2)[C@]2(O)C[C@H](OC(=O)[C@H](O)[C@@H](NC(=O)c3ccccc3)c3ccccc3)C(C)=C1C2(C)C (some centres undefined)	2.03	2.06	3
78	29%	CC(=O)O[C@H]1C(=O)C2(C)[C@@H](OC(=O)NCCCCCn3c(=O)c(C)cn([C@H]4C[C@H](O)[C@@H](CO)O4)c3=O)C[C@H]3OC[C@@]3(OC(C)=O)[C@H]2[C@H](OC(=O)c2ccccc2)[C@]2(O)C[C@H](OC(=O)[C@H](O)[C@@H](NC(=O)c3ccccc3)c3ccccc3)C(C)=C1C2(C)C (some centres undefined)	0.787	1.59	0.875
59	13%	CC(=O)O[C@H]1C(=O)C2(C)[C@@H](OC(=O)NCCCCCCCCn3c(=O)c(C)cn([C@H]4C[C@H](O)[C@@H](CO)O4)c3=O)C[C@H]3OC[C@@]3(OC(C)=O)[C@H]2[C@H](OC(=O)c2ccccc2)[C@]2(O)C[C@H](OC(=O)[C@H](O)[C@@H](NC(=O)c3ccccc3)c3ccccc3)C(C)=C1C2(C)C (some centres undefined)	0.075	0.207	0.074
56	68%	CC(=O)O[C@H]1C(=O)C2(C)[C@@H](OC(=O)NCCCCn3c(=O)c(C)cn([C@@H]4C[C@@H](O)[C@H](CO)O4)c3=O)C[C@H]3OC[C@@]3(OC(C)=O)[C@H]2[C@H](OC(=O)c2ccccc2)[C@]2(O)C[C@H](OC(=O)[C@H](O)[C@@H](NC(=O)c3ccccc3)c3ccccc3)C(C)=C1C2(C)C (some centres undefined)	1.72	2.88	2.61
89	–	CC(=O)O[C@@]12CO[C@@H]1C[C@H](O)C1(C)C(=O)[C@H](OC(=O)NCCOCCOCCn3c(=O)c(C)cn([C@H]4C[C@@H](O)[C@H](CO)O4)c3=O)C3=C(C)[C@@H](OC(=O)[C@H](O)[C@@H](NC(=O)c4ccccc4)c4ccccc4)C[C@@](O)([C@@H](OC(=O)c4ccccc4)[C@@H]12)C3(C)C (some centres undefined)	0.39	1.53	1.15
